Measurements published in patent US11220483B2, “Tetrahydro-benzo[d]azepine derivatives as GPR120 modulators” (CALDAN THERAPEUTICS LIMITED, priority 2018, dated 2022).

Target: T1, human GPR120 (Homo sapiens, UniProt Q5NUL3)
T1 construct: expressed in transfected cells; host or cells: HEK293T, transient transfection with PEI
T1 sequence (Q5NUL3 1-361): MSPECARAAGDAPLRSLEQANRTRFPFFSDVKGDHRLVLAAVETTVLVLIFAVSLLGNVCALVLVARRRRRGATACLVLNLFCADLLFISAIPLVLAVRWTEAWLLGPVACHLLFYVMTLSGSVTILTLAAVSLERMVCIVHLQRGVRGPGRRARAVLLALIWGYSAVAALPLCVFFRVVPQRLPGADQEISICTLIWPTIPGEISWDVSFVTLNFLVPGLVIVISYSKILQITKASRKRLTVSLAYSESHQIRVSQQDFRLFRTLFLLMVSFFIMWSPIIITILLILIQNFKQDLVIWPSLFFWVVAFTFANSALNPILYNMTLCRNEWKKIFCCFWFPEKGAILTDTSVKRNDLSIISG
Assay: Human GPR120-β Arrestin 2 BRET agonist assay
Type: cell-based
Details: HEK293T cells transiently co-expressing hGPR120-eYFP and β-arrestin 2-RLuc; BRET normalised to DMSO (0%) and TUG-891 (100%); read-out: hGPR120 pEC50 (converted)
Procedure: pEC50 data was obtained by the following procedure:
Human GPR120-β Arrestin 2 Bio-Luminescence Resonance Energy Transfer (BRET) Agonist Assay Procedure
HEK293T cells were cultured in growth media composed of DMEM L-glutamine media supplemented with 10% (v:v) fetal bovine serum (FBS) and 1% (v:v) 10,000 units penicillin/10 mgml^−1 streptomycin at 37° C., 5% CO2. HEK293T cells transiently co-expressing human GPR120 […] and b-arrestin 2 were generated by transfection with plasmids encoding a construct of hGPR120 […] fused at its C terminal with enhanced yellow fluorescent protein (eYFP), and another encoding β-arrestin 2 fused to Renilla luciferase (RLuc), using Polyethylenimine (PEI) as the transfection reagent.
Transfected cells were cryopreserved in batches for consistency between replicate assays. Twenty-four hours post transfection, cells were harvested with non-enzymatic cell dissociation buffer and re-suspended in DMEM medium supplemented with 10% DMSO and 10% FBS before being transferred first to −80° C. overnight and then to liquid nitrogen for long-term storage. On the day prior to the assay, cells were thawed at 37° C. and re-suspended in growth media. A 96 well white opaque bottom microtitre plate was then seeded with 40,000 cells in a volume of 100 μl growth media per well and seeded plates were then incubated overnight at 37° C., 5% CO2. On the day of the BRET experiment, cells were washed twice with BRET assay buffer (Hanks balanced salt solution (HBSS) supplemented with 10 mM HEPES (pH 7.4)), then 80 μl per well of BRET assay buffer was added before the plate was incubated for 30 minutes at 37° C., 5% CO2. Then, Renilla luciferase substrate coelenterazine h (5 μM) was added to the cells and incubated at 37° C. for 10 minutes before the addition of GPR120 agonist (TUG-891) or test compound for a further 5 minutes at 37° C.
Bio-luminescence at λ 535 nm and λ 475 nm was then measured with a Pherastar FsX instrument, and the λ 535/λ 475 ratio of bio-luminescence was then used to calculate a BRET value. hGPR120 agonist potency values (pEC50) were calculated by normalising the BRET values to the DMSO vehicle (0% control) and TUG-891 (100% control) and then fitting the normalised data to a 3-parameter concentration-response curve.

| EC50 [µM] | SMILES |
| --- | --- |
| 0.158 | O=C(O)C1CC1c1ccc2c(c1)CCN(c1cc(OC3CCC3)ccc1F)C2 (single isomer, unassigned) [34 isomer 1] |
| 0.0794 | O=C(O)C1CC1c1ccc2c(c1)CCN(c1cc(OC3CCC3)ccc1F)C2 (single isomer, unassigned) [34 isomer 2] |
| 0.0631 | O=C(O)C1CC1c1ccc2c(c1)CCN(c1nc(OC3CCC3)ccc1F)C2 (single isomer, unassigned) [37 Isomer 1] |
| 0.0501 | O=C(O)C1CC1c1ccc2c(c1)CCN(c1cccc(Oc3ccccc3)c1)C2 (single isomer, unassigned) [38 isomer 1] |
| 0.0398 | O=C(O)C1CC1c1ccc2c(c1)CCN(c1cccc(Oc3ccccc3)c1)C2 (single isomer, unassigned) [38 isomer 2] |
| 0.0398 | O=C(O)CCc1ccc2c(c1)CCN(c1cc(OC(F)(F)F)ccc1F)C2 [Compound 1, 3-(2-(2-Fluoro-5-(trifluoromethoxy)phenyl)-1,2,3,4-tetrahydroisoquinolin-6-yl)propanoic Acid] |
| 0.158 | O=C(O)CCc1ccc2c(c1)CCN(c1ccccc1Oc1ccccc1)C2 [Compound 4, 3-(2-(2-phenoxyphenyl)-1,2,3,4-tetrahydroisoquinolin-6-yl)propanoic acid] |
| 0.0794 | N#Cc1ccc(OC(F)(F)F)cc1N1CCc2cc(CCC(=O)O)ccc2C1 [Compound 6, 3-(2-(2-cyano-5-(trifluoromethoxy)phenyl)-1,2,3,4-tetrahydroisoquinolin-6-yl)propanoic acid] |
| 0.02 | O=C(O)CCc1ccc2c(c1)CCN(c1cc(Oc3ccccc3)ccc1F)C2 [Compound 9, 3-(2-(2-fluoro-5-phenoxyphenyl)-1,2,3,4-tetrahydroisoquinolin-6-yl)propanoic acid] |
| 0.158 | O=C(O)CCc1ccc2c(c1)CCN(c1cccc(OC(F)(F)F)c1)C2 [Compound 10, 3-(2-(3-(Trifluoromethoxy)phenyl)-1,2,3,4-tetrahydroisoquinolin-6-yl)propanoic Acid] |
| 0.631 | CC1(C)Cc2cc(Cl)cc(N3CCc4cc(CCC(=O)O)ccc4C3)c2O1 [Compound 15, 3-(2-(5-chloro-2,2-dimethyl-2,3-dihydrobenzofuran-7-yl)-1,2,3,4-tetrahydroisoquinolin-6-yl)propanoic acid] |
| 0.501 | O=C(O)CCc1ccc2c(c1)CCN(c1cccc(C(F)(F)F)c1)C2 [Compound 16, 3-(2-(3-(trifluoromethyl)phenyl)-1,2,3,4-tetrahydroisoquinolin-6-yl)propanoic acid] |
| 7.94 | N#Cc1ccc(N2CCc3cc(CCC(=O)O)ccc3C2)cc1 [Compound 17, 3-(2-(4-cyanophenyl)-1,2,3,4-tetrahydroisoquinolin-6-yl)propanoic acid] |
| 25.1 | O=C(O)CCc1ccc2c(c1)CCN(c1ccnc(C3CC3)n1)C2 [Compound 18, 3-(2-(2-cyclopropylpyrimidin-4-yl)-1,2,3,4-tetrahydroisoquinolin-6-yl)propanoic acid] |
| 0.0251 | O=C(O)CCc1ccc2c(c1)CCN(c1cccc(Oc3ccccc3)c1)C2 [Compound 20, 3-(2-(3-phenoxyphenyl)-1,2,3,4-tetrahydroisoquinolin-6-yl)propanoic acid] |
| 0.316 | O=C(O)CCc1ccc2c(c1)CCN(c1cccc(OC(F)(F)F)n1)C2 [Compound 22, 3-(2-(6-(trifluoromethoxy)pyridin-2-yl)-1,2,3,4-tetrahydroisoquinolin-6-yl)propanoic acid] |
| 0.398 | O=C(O)CCc1ccc2c(c1)CCN(c1cccc(-c3ccccc3)c1)C2 [Compound 23, 3-(2-([1,1′-biphenyl]-3-yl)-1,2,3,4-tetrahydroisoquinolin-6-yl)propanoic acid] |
| 0.398 | O=C(O)CCc1ccc2c(c1)CCN(c1cc(F)cc(-c3ccccc3)c1)C2 [Compound 24, 3-(2-(5-fluoro-[1,1′-biphenyl]-3-yl)-1,2,3,4-tetrahydroisoquinolin-6-yl)propanoic acid] |
| 0.0631 | COc1cc(OC(F)(F)F)cc(N2CCc3cc(CCC(=O)O)ccc3C2)c1 [Compound 25, 3-(2-(3-methoxy-5-(trifluoromethoxy)phenyl)-1,2,3,4-tetrahydroisoquinolin-6-yl)propanoic acid] |
| 0.0794 | CC(Cc1ccc2c(c1)CCN(c1cc(OC(F)(F)F)ccc1F)C2)C(=O)O (stereo not shown) [Compound 26, 3-(2-(2-Fluoro-5-(trifluoromethoxy)phenyl)-1,2,3,4-tetrahydroisoquinolin-6-yl)-2-methylpropanoic Acid] |
| 0.501 | CC(C)Oc1cccc(N2CCc3cc(CCC(=O)O)ccc3C2)c1 [Compound 28, 3-(2-(3-Isopropoxyphenyl)-1,2,3,4-tetrahydroisoquinolin-6-yl)propanoic Acid] |

| SMILES | EC50 [µM] |
| --- | --- |
| CC(Cc1ccc2c(c1)CCN(c1cc(OC3CCC3)ccc1F)C2)C(=O)O (racemic) [Compound 27, 3-(2-(5-cyclobutoxy-2-fluorophenyl)-1,2,3,4-tetrahydroisoquinolin-6-yl)-2-methylpropanoic acid] | 0.1 |
| O=C(O)C1CC1c1ccc2c(c1)CCN(c1cc(OC3CCC3)ccc1F)C2 (racemic) [Compound 34, 2-(2-(5-cyclobutoxy-2-fluorophenyl)-1,2,3,4-tetrahydroisoquinolin-6-yl)cyclopropanecarboxylic Acid] | 0.158 |
| CO[C@H]1C[C@H](Oc2ccc(F)c(N3CCc4cc(CCC(=O)O)ccc4C3)c2)C1 [Compound 2, 3-(2-(2-fluoro-5-((1r,3r)-3-methoxycyclobutoxy)phenyl)-1,2,3,4-tetrahydroisoquinolin-6-yl)propanoic acid] | 0.158 |
| O=C(O)CCc1ccc2c(c1)CCN(c1cc(OC3CCC3)cc(F)c1F)C2 [Compound 3, 3-(2-(5-cyclobutoxy-2,3-difluorophenyl)-1,2,3,4-tetrahydroisoquinolin-6-yl)propanoic acid] | 0.01 |
| O=C(O)CCc1ccc2c(c1)CCN(c1cccnc1OC1CCC1)C2 [Compound 5, 3-(2-(2-cyclobutoxypyridin-3-yl)-1,2,3,4-tetrahydroisoquinolin-6-yl)propanoic acid] | 7.94 |
| O=C(O)CCc1ccc2c(c1)CCN(c1nc(OC3CCC3)ccc1F)C2 [Compound 7, 3-(2-(6-cyclobutoxy-3-fluoropyridin-2-yl)-1,2,3,4-tetrahydroisoquinolin-6-yl)propanoic acid] | 0.0158 |
| O=C(O)CCc1ccc2c(c1)CCN(c1ncc(F)c(OC3CCC3)n1)C2 [Compound 8, 3-(2-(4-cyclobutoxy-5-fluoropyrimidin-2-yl)-1,2,3,4-tetrahydroisoquinolin-6-yl)propanoic acid] | 0.0631 |
| O=C(O)CCc1ccc2c(c1)CCN(c1cc(OC3CCC3)ccc1Cl)C2 [Compound 11, 3-(2-(2-chloro-5-cyclobutoxyphenyl)-1,2,3,4-tetrahydroisoquinolin-6-yl)propanoic acid] | 0.0501 |
| O=C(O)CCc1ccc2c(c1)CCN(c1cccc(OC3CCC3)c1)C2 [Compound 12, 3-(2-(3-cyclobutoxyphenyl)-1,2,3,4-tetrahydroisoquinolin-6-yl)propanoic acid] | 0.158 |
| O=C(O)CCc1ccc2c(c1)CCN(c1cc(OC3CCC3)ccc1F)C2 [Compound 13, 3-(2-(5-cyclobutoxy-2-fluorophenyl)-1,2,3,4-tetrahydroisoquinolin-6-yl)propanoic acid] | 0.02 |
| Cc1ccc(OC2CCC2)cc1N1CCc2cc(CCC(=O)O)ccc2C1 [Compound 14, 3-(2-(5-cyclobutoxy-2-methylphenyl)-1,2,3,4-tetrahydroisoquinolin-6-yl)propanoic acid] | 0.0501 |
| O=C(O)CCc1ccc2c(c1)CCN(c1cc(F)cc(OC3CCC3)c1)C2 [Compound 19, 3-(2-(3-cyclobutoxy-5-fluorophenyl)-1,2,3,4-tetrahydroisoquinolin-6-yl)propanoic acid] | 0.0251 |
| O=C(O)CCc1ccc2c(c1)CCN(c1cccc(OC3CCC3)n1)C2 [Compound 21, 3-(2-(6-cyclobutoxypyridin-2-yl)-1,2,3,4-tetrahydroisoquinolin-6-yl)propanoic acid] | 0.0398 |
